Test results reported in patent EP2951180B1, “2,6,7,8 SUBSTITUTED PURINES AS HDM2 INHIBITORS” (Merck Sharp & Dohme Corp., priority 2013, dated 2014).
pIC50: −log10 of the molar value.

Biological target: T1, HDM2 (Homo sapiens, UniProt Q00987)
T1 construct: Thioredoxin (N); made in house; host or cells: E. coli strain BL21(DE3)Rosetta
Test: HDM2 FRET assay (inhibition of binding of FITC labeled p53-pocket peptide to HDM2)
Conditions: 0.5 nM HDM2 (residues 17 to 125), 3nM peptide, two hour incubation at room temperature; read-out: FRET IC50
In short: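 Displacement of FITC-p53 peptide (3 nM) from His-tagged HDM2 (0.5 nM) is measured by Tb-to-fluorescein FRET in PBS, 0.01% BSA, 0.01% Tween-20. IC50 values derive from 10-point curves.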

T1 sequence (Q00987 17-125): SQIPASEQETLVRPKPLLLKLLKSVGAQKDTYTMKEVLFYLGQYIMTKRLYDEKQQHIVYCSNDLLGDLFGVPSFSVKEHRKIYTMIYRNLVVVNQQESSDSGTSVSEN

SMILES | pIC50
CC[C@@H]1COCCN1c1nc2nc(-c3noc(=O)[nH]3)nc(-c3cccc(Cl)c3)c2n1C[C@H]1CC[C@H](C)CC1 [Example 16.47, 3-{6-(3-chlorophenyl)-8-[(3R)-3-ethylmorpholin-4-yl]-7-[(trans-4-methylcyclohexyl)methyl]-7H-purin-2-yl}-1,2,4-oxadiazol-5(4H)-one] | 7.95
COC(=O)[C@@H]1COCCN1c1nc2nc(-c3noc(=O)[nH]3)nc(-c3cccc(Cl)c3)c2n1C[C@H]1CC[C@H](C)CC1 [Example 16.48, methyl (3S)-4-[6-(3-chlorophenyl)-7-[(trans-4-methylcyclohexyl)methyl]-2-(5-oxo-4,5-dihydro-1,2,4-oxadiazol-3-yl)-7H-purin-8-yl]morpholine-3-carboxylate] | 7.05
C[C@H](Nc1nc2nc(-c3noc(=O)[nH]3)nc(-c3cccc(Cl)c3)c2n1C[C@H]1CC[C@H](C)CC1)c1cccc(F)c1 [Example 16.49, 3-{6-(3-chlorophenyl)-8-{[(1S)-1-(3-fluorophenyl)ethyl]amino}-7-[(trans-4-methylcyclohexyl)methyl]-7H-purin-2-yl}-1,2,4-oxadiazol-5(4H)-one] | 8.79
CC[C@H](Nc1nc2nc(-c3noc(=O)[nH]3)nc(-c3cccc(Cl)c3)c2n1C[C@H]1CC[C@H](C)CC1)c1ccccc1 [Example 16.50, 3-[6-(3-chlorophenyl)-7-[(trans-4-methylcyclohexyl)methyl]-8-{[(1S)-1-phenylpropyl]amino} -7H-purin-2-yl]-1,2,4-oxadiazol-5(4H)-one] | 8.57
C[C@@H]1CNCCN1c1nc2nc(-c3noc(=O)[nH]3)nc(-c3cccc(Cl)c3)c2n1C[C@H]1CC[C@H](C)CC1 [Example 16.54, 3-{6-(3-chlorophenyl)-7-[(trans-4-methylcyclohexyl)methyl]-8-[(2R)-2-methylpiperazin-1-yl]-7H-purin-2-yl}-1,2,4-oxadiazol-5(4H)-one] | 7.23
C[C@H](Nc1nc2nc(-c3n[nH]c(=O)o3)nc(-c3cccc(Cl)c3)c2n1C[C@H]1CC[C@H](C)CC1)c1cccc(F)c1 [Example 16.55, 5-{6-(3-chlorophenyl)-8-{[(1S)-1-(3-fluorophenyl)ethyl]amino}-7-[(trans-4-methylcyclohexyl)methyl]-7H-purin-2-yl}-1,3,4-oxadiazol-2(3H)-one] | 8.30
CN(Cc1ccccc1)c1nc2nc(-c3noc(=O)[nH]3)nc(-c3cccc(Cl)c3)c2n1C[C@H]1CC[C@H](C)CC1 [Example 16.56, 3-{8-[benzyl(methyl)amino]-6-(3-chlorophenyl)-7-[(trans-4-methylcyclohexyl)methyl]-7H-purin-2-yl}-1,2,4-oxadiazol-5(4H)-one] | 7.37
C[C@H](O)[C@H](Nc1nc2nc(-c3n[nH]c(=O)o3)nc(-c3cccc(Cl)c3)c2n1C[C@H]1CC[C@H](C)CC1)c1ccccc1 [Example 16.57, 5-{6-(3-chlorophenyl)-8-{[(1R,2S)-2-hydroxy-1-phenylpropyl]amino} -7-[(trans-4-methylcyclohexyl)methyl]-7H-purin-2-yl}-1,3,4-oxadiazol-2(3H)-one] | 8.26
CC[C@@H]1COCCN1c1nc2nc(-c3n[nH]c(=O)o3)nc(-c3cccc(Cl)c3)c2n1C[C@H]1CC[C@H](C)CC1 [Example 16.58, 5-{6-(3-chlorophenyl)-8-[(3R)-3-ethylmorpholin-4-yl]-7-[(trans-4-methylcyclohexyl)methyl]-7H-purin-2-yl}-1,3,4-oxadiazol-2(3H)-one] | 7.67
COC[C@@H]1COCCN1c1nc2nc(-c3noc(=O)[nH]3)nc(-c3cccc(Cl)c3)c2n1C[C@H]1CC[C@H](C)CC1 [Example 16.59, 3-{6-(3-chlorophenyl)-8-[(3R)-3-(methoxymethyl)mor pholin-4-yl]-7-[(trans-4-methylcyclohexyl)methyl]-7H-purin-2-yl}-1,2,4-oxadiazol-5(4H)-one] | 7.72
C[C@@H]1COC[C@@H](C)N1c1nc2nc(-c3noc(=O)[nH]3)nc(-c3cccc(Cl)c3)c2n1C[C@H]1CC[C@H](C)CC1 [Example 16.60, 3-{6-(3-chlorophenyl)-8-[(3R,5R)-3,5-dimethylmorpholin-4-yl]-7-[(trans-4-methylcyclohexyl)methyl]-7H-purin-2-yl}-1,2,4-oxadiazol-5(4H)-one] | 8.65
CC[C@H](Nc1nc2nc(-c3n[nH]c(=O)o3)nc(-c3cccc(Cl)c3)c2n1C[C@H]1CC[C@H](C)CC1)c1ccccc1 [Example 16.61, 5-[6-(3-chlorophenyl)-7-[(trans-4-methylcyclohexyl)methyl]-8-{[(1S)-1-phenylpropyl]amino} -7H-purin-2-yl]-1,3,4-oxadiazol-2(3H)-one] | 8.01
CN(Cc1ccccc1)c1nc2nc(-c3n[nH]c(=O)o3)nc(-c3cccc(Cl)c3)c2n1C[C@H]1CC[C@H](C)CC1 [Example 16.62, 5-{8-[benzyl(methyl)amino]-6-(3-chlorophenyl)-7-[(trans-4-methylcyclohexyl)methyl]-7H-purin-2-yl}-1,3,4-oxadiazol-2(3H)-one] | 6.87
COC(C)(C)[C@@H]1COCCN1c1nc2nc(-c3noc(=O)[nH]3)nc(-c3cccc(Cl)c3)c2n1C[C@H]1CC[C@H](C)CC1 [Example 16.63, 3-{6-(3-chlorophenyl)-8-[(3S)-3-(1-methoxy-1-methylethyl)morpholin-4-yl]-7-[(trans-4-methylcyclohexyl)methyl]-7H-purin-2-yl}-1,2,4-oxadiazol-5(4H)-one] | 7.71
CC[C@H](Nc1nc2nc(-c3noc(=O)[nH]3)nc(-c3cccc(Cl)c3)c2n1C[C@H]1CC[C@H](C)CC1)c1cccc(F)c1 [Example 16.64, 3-{6-(3-chlorophenyl)-8-{[(1S)-1-(3-fluorophenyl)propyl]amino}-7-[(trans-4-methylcyclohexyl)methyl]-7H-purin-2-yl}-1,2,4-oxadiazol-5(4H)-one] | 8.50
C[C@@H]1COC[C@H](C)N1c1nc2nc(-c3noc(=O)[nH]3)nc(-c3cccc(Cl)c3)c2n1C[C@H]1CC[C@H](C)CC1 [Example 16.67, 3-{6-(3-chlorophenyl)-8-[(3R,5S)-3,5-dimethylmorpholin-4-yl]-7-[(trans-4-methylcyclohexyl)methyl]-7H-purin-2-yl}-1,2,4-oxadiazol-5(4H)-one] | 8.20
C[C@@H]1CN(C)C(=O)CN1c1nc2nc(-c3noc(=O)[nH]3)nc(-c3cccc(Cl)c3)c2n1C[C@H]1CC[C@H](C)CC1 [Example 16.68, (5R)-4-[6-(3-chlorophenyl)-7-[(trans-4-methylcyclohexyl)methyl]-2-(5-oxo-4,5-dihydro-1,2,4-oxadiazol-3-yl)-7H-purin-8-yl]-1,5-dimethylpiperazin-2-one] | 7.94
C[C@H]1CC[C@H](Cn2c(N3CCC[C@H]3C(F)(F)F)nc3nc(-c4noc(=O)[nH]4)nc(-c4cccc(Cl)c4)c32)CC1 [Example 16.69, 3-{6-(3-chlorophenyl)-7-[(trans-4-methylcyclohexyl)methyl]-8-[(2S)-2-(trifluoromethyl)pyrrolidin-1-yl]-7H-purin-2-yl}-1,2,4-oxadiazol-5 (4H)-one] | 9.04
C[C@H]1CC[C@H](Cn2c(N3CCC[C@H]3C(F)(F)F)nc3nc(-c4noc(=O)[nH]4)nc(-c4cncc(Cl)c4)c32)CC1 [Example 16.74, 3-{6-(5-chloropyridin-3-yl)-7-[(trans-4-methylcyclohexyl)methyl]-8-[(2S)-2-(trifluoromethyl)pyrrolidin-1-yl]-7H-purin-2-yl}-1,2,4-oxadiazol-5(4H)-one] | 9.23
